Test results as given in publication PMC11661381, “Covalent-fragment screening identifies selective inhibitors of multiple Staphylococcus aureus serine hydrolases important for growth and biofilm formation” (Research Square, 2024).

Columns and labels:
[1] = tested on: Pseudomonas aeruginosa; assay: Bacterial growth inhibition assay, P. aeruginosa; format: cell-based
Experimental: (§1) Bacteria were streaked from glycerol stocks onto agar plates and grown overnight at 37°C. A single colony was inoculated in either Tryptic Soy Broth (TSB; Sigma-Aldrich, St. Louis, MO; used for most species) or Bacto Brain Heart Infusion (BHI; Becton, Dickinson, and Company, Franklin Lakes, NJ; used for L. monocytogenes and S. pyogenes) and grown at 37°C shaking until mid-exponential phase (OD600 = 0.5), then diluted 1:10 in cation-adjusted Mueller Hinton Broth (MHB2, Millipore Sigma, Bedford, MA; used for most species) or BHI (for L. monocytogenes and S. pyogenes). 15 μl of this dilution was added to 135 μl of MHB2 or BHI in a flat-bottom clear 96-well plate for a starting inoculum of ~ 5 × 10^5 CFU/ml.
For bacterial growth inhibition assay, wild-type S. aureus and transposon mutants (fphB::Tn, fphE::Tn and fphH::Tn) were grown with compounds at final concentrations ranging from 1–100 μM and compared to growth in media with an equivalent percentage of DMSO. […] All growth curves were repeated at least twice and analyzed in GraphPad Prism 10.0 software. […] The cultures were incubated overnight at 37°C, 5% CO2 before their optical density was read. The EC50 of the antibiotics against the bacteria in the presence or absence of N34 were determined by fitting the normalized data into a four-parameter logistic model in GraphPad Prism 10.0 software.

[2] = target: T1, rFphE (Staphylococcus aureus, UniProt Q2FDS6); assay: FP-Cy5 active site labeling competition of recombinant protein, rFphE; format: binding
T1 construct: otherwise full-length FphE (Uniprot ID Q2FDS6) and FphH (A0A0H2XJL0) proteins; His6 (3C-cleavable, pETNKI-his-3C-LIC vector) (N); made in house; E. coli is inferred from the pET28a-type vector, IPTG induction and LB/kanamycin
T1 sequence (Q2FDS6 1-276): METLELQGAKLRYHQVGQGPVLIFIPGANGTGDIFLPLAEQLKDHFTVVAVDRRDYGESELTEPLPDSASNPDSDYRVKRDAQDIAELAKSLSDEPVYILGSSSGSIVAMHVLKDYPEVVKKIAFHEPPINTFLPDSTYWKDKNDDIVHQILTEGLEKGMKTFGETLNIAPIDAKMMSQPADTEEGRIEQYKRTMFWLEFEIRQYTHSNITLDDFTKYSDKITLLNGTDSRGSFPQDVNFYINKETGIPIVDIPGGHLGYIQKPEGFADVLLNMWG
Experimental: For activity-based protein labeling experiments, 500 nM of rFphB, rFphE and rFphH in 1X PBS and 0.1% Triton–X were preincubated with different concentrations of inhibitors or DMSO for 2hr at room temperature, followed by adding 300 nM of fluorophosphonate (FP) alkyne and incubated for 30 min at room temperature. Next, 20 μL of the reaction volume were mixed with 2.16 μL of freshly prepared click mix (0.5 μL of 50 mM CuSO4 in H2O, 1.16 μL of 100 mM BTTAA in DMSO, and 0.5 μL of N3-Cy5 in DMSO) and 1.16 μL of 300 mM sodium ascorbate solution in H2O. Samples were incubated at 37°C for 30 min, boiled in SDS loading buffer and analyzed by SDS–PAGE. Cy5 fluorescence was imaged using the Cy5 channel on a Typhoon 9410 Imager (Amersham Biosciences).

[3] = tested on: Escherichia coli; assay: Bacterial growth inhibition assay, E. coli; format: cell-based
[4] = tested on: Fph enzymes in live S. aureus cells (USA300); assay: Competition of FP-alkyne labeling in live S. aureus cells; format: cell-based, Staphylococcus aureus; conditions: 100 μM compound, live S. aureus cells
Experimental: (§2) One colony of each of S. aureus wild-type and transposon mutants fphB::Tn, fphE::Tn and fphH::Tn picked from growth on a Tryptic soya agar plate were inoculated in 5 mL of Tryptic soya broth (TSB). The overnight bacterial cultures were spun down at 5,000 g for 10 min and pellet was collected. The pellets were washed twice in 1X PBS buffer and resuspended in the same buffer. Cells were first preincubated with the indicated concentrations of inhibitors for 2hr at 37°C. The cells were washed twice with 1X PBS buffer. The resuspended pellets were incubated with Fluorophosphonate-alkyne (FP-alkyne) for 30 min at 37°C. Cells were washed again twice with 1X PBS buffer and resuspended in with 1X PBS and 0.1% Triton–X and lysed by beat beating at 4°C. Next, lysed cells (20 μL) were mixed with 2.16 μL of freshly prepared click mix (0.5 μL of 50 mM CuSO4 in H2O, 1.16 μL of 100 mM BTTAA in DMSO, and 0.5 μL of N3-Cy5 in DMSO) and 1.16 μL of 300 mM sodium ascorbate solution in H2O and incubated at 37 °C for 30 min. Next step, 20 μL of 4X SDS loading buffer was added in each sample and boiled at 100 °C for 10 min. The processed samples were allowed to cool and analyzed by SDS-PAGE (12%) running at 120 V in an electrophoresis chamber. Cy5 fluorescence was imaged using the Cy5 channel on a Typhoon 9410 Imager (Amersham Biosciences).

[5] = target: T2, Fph enzymes in live S. aureus cells (USA300) (Staphylococcus aureus, UniProt Q2FDS6); assay: as above; format: cell-based; conditions: live cells, doses 5–100 μM, 120 min preincubation
T2 construct: endogenous in cells; host or cells: live S. aureus USA300 (LAC) wild-type cells
Experimental: as §2

[6] = Cytotoxicity assay (CellTiter-Blue); format: cell-based; conditions: human; HEK293 cells, 48hr of incubation
[7] = tested on: S. aureus wild type and fph transposon mutants; assay: Bacterial growth inhibition assay, S. aureus; format: cell-based, Staphylococcus aureus; conditions: 1–100 μM
Experimental: as §1
For bacterial growth inhibition assay, wild-type S. aureus and transposon mutants (fphB::Tn, fphE::Tn and fphH::Tn) were grown with compounds at final concentrations ranging from 1–100 μM and compared to growth in media with an equivalent percentage of DMSO. Each condition was plated as technical duplicates. The plate was incubated at 37°C with shaking every 15 minutes followed by measurement of OD600 for 14 hr. All growth curves were repeated at least twice and analyzed in GraphPad Prism 10.0 software. For bacterial resistance analysis, overnight culture of S. aureus Newman was diluted to an OD600 of 0.01 in MHB. This was followed by pretreatment with 20 μM N34 or equivalent DMSO volume as control. The pretreatment was allowed to proceed for 3 hr before initiating treatment with different concentrations of the test antibiotics (Table S5). The cultures were incubated overnight at 37°C, 5% CO2 before their optical density was read. The EC50 of the antibiotics against the bacteria in the presence or absence of N34 were determined by fitting the normalized data into a four-parameter logistic model in GraphPad Prism 10.0 software.

OB(O)c1csc2ccccc12 [Z27, Benzo[b]thiophen-3-ylboronic acid]
growth defect (in words) [1]: no significant growth defect
concentration inhibiting FP-Cy5 labeling of rFphE [2]: > 50 µM
growth defect (in words) [3]: no significant growth defect
competition of FP labeling in live cells (in words) [4]: only blocked FP labeling of FphE in live cells
concentration completely inhibiting FphE labeling [5]: ≥ 50 µM
CC50 at 48 h [6]: > 200 µM
effect on S. aureus growth (in words) [7]: reduced growth for only the fphE mutant
